Measurements from patent publication US20080119542A1, “METHODS OF USING ARTEMISININ-LIKE COMPOUNDS TO PREVENT OR DELAY THE APPEARANCE OF CANCER” (UNIVERSITY OF WASHINGTON, priority 2002, published 2008).

Assays:
mammary tumors [1] = assay: Tumor development in DMBA-treated rats given artemisinin mixed in food; assay type: in vivo, Female rats; conditions: artemisinin 0.05% in food, approximately 10 mg/kg/day
Excerpt: This Example describes a representative method for preventing or slowing the development of cancer in rats exposed to a carcinogen by providing artemisinin mixed in food.
Materials and Methods: Female rats were similarly treated with the carcinogen DMBA, as described in EXAMPLE 1. The rats were randomly assigned to two treatment groups. Artemisinin (0.05%) was mixed in the food of one group of animals starting the day immediately after DMBA treatment. Daily intake of artemisinin, based on the amount of food eaten each day, was estimated to be approximately 10 mg/kg/day. The other group of animals (controls) was given regular rat food.

mammary tumors [2] = assay: Tumor development in DMBA-treated rats given weekly oral intubations of artemisinin; assay type: in vivo, Female Sprague-Dawley rats; conditions: for Percentage of Animals with Tumors: artemisinin 10 mg/kg weekly oral intubation
Method: This Example describes a representative method for preventing or slowing the development of cancer in rats exposed to a carcinogen by administering artemisinin by weekly oral intubations.
Materials and Methods: Female Sprague-Dawley rats were administered a single intragastric dose of the carcinogen 7,12-dimethylbenz[a]anthracene (DMBA; Sigma Chemicals, St Louis, Mo.; 50 mg/kg body weight) suspended in olive oil (Sigma Chemicals, St Louis, Mo.; 25 mg/ml). Animals were randomly assigned to two treatment groups to receive either weekly oral intubations of artemisinin (Holley Pharmaceuticals, Fullerton, Calif.; 10 mg/kg at 10 mg/ml of olive oil) or olive oil (control). Artemisinin treatment began a week after DMBA administration. Animals were palpated for the presence of mammary tumors once weekly. The time and site of detection and size were recorded for each tumor in an animal.

[3] = cancer patient; oral 50 mg per day, intramuscular 60 mg/day, over 9 months; cited from earlier work

C[C@@H]1CC[C@H]2[C@@H](C)C(=O)O[C@@H]3O[C@@]4(C)CC[C@@H]1[C@]32OO4 [Artemisinin, artemisinin]
Percentage of Animals with Tumors (mammary tumors [1]; week 6 after DMBA): 0% | Percentage of Animals with Tumors (mammary tumors [1]; week 7 after DMBA): 0% | Percentage of Animals with Tumors (mammary tumors [1]; week 8 after DMBA): 0% | Percentage of Animals with Tumors (mammary tumors [1]; week 9 after DMBA): 0% | Percentage of Animals with Tumors (mammary tumors [1]; week 10 after DMBA): 0% | Percentage of Animals with Tumors (mammary tumors [1]; week 10 after DMBA, listed as artemisinin): none | Percentage of Animals with Tumors (mammary tumors [2]; week 6 after DMBA): 0% | Percentage of Animals with Tumors (mammary tumors [2]; week 6 after DMBA, listed as artemisinin): none | Percentage of Animals with Tumors (mammary tumors [2]; week 7 after DMBA): 9% | Percentage of Animals with Tumors (mammary tumors [2]; week 9 after DMBA): 9% | Percentage of Animals with Tumors (mammary tumors [2]; week 10 after DMBA): 9% | Percentage of Animals with Tumors (mammary tumors [2]; week 11 after DMBA): 9% | Percentage of Animals with Tumors (mammary tumors [2]; week 12 after DMBA): 27% | Percentage of Animals with Tumors (mammary tumors [2]; week 13 after DMBA): 45% | Percentage of Animals with Tumors (mammary tumors [2]; week 16 after DMBA): 45% | Percentage of Animals with Tumors (mammary tumors [2]; week 17 after DMBA): 45% | Percentage of Animals with Tumors (mammary tumors [2]; week 20 after DMBA): 54% | Percentage of Animals with Tumors (mammary tumors [2]; week 29 after DMBA): 64% | Percentage of Animals with Tumors (mammary tumors [2]; week 31 after DMBA): 64% | Percentage of Animals with Tumors (mammary tumors [2]; week 38 after DMBA): 64% | Appearance of tumors in carcinogen-treated animals (mammary tumors [2]; weekly artemisinin treatment vs olive oil controls): delayed the appearance of tumors

C[C@H]1[C@H](OC(=O)CCC(=O)O)O[C@@H]2O[C@@]3(C)CC[C@H]4[C@H](C)CC[C@@H]1[C@@]24OO3 [artesunate]
Adverse side effects [3]: No apparent adverse side effects
